pIC50: −log10 of the molar value. Calls of active or inactive are those of the source. No cut-off for these calls is given here.
Key:
Cytochrome P450 1A2 = target: T1, Cytochrome P450 1A2 (Homo sapiens, UniProt P05177); assay: Inhibition of CYP1A2 in human liver microsomes at 10 uM in presence of NADPH-regenerating system by LC-MS/MS analysis; assay type: ADME, Microsome
T1 sequence (P05177 whole entry): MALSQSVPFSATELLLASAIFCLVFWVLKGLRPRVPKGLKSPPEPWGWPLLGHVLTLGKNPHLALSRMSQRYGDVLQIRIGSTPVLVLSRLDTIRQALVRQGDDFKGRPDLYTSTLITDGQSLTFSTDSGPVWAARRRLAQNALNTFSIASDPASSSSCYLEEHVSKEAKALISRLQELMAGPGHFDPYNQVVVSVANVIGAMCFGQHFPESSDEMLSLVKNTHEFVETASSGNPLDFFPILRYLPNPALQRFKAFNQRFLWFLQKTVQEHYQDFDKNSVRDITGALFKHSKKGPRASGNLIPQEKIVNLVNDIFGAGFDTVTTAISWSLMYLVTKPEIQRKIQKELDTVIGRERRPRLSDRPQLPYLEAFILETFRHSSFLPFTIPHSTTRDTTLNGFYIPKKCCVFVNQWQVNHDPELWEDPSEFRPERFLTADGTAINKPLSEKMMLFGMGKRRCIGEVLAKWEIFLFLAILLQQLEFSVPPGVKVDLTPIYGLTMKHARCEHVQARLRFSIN

[1] = Acute toxicity in ICR mouse assessed as animal growth at 1 g/kg, IG; settings: in vivo, po, 1000 mg/kg
[2] = Acute toxicity in ICR mouse assessed as animal death at 1 g/kg, IG; settings: in vivo, po, 1000 mg/kg
[3] = Half life in Sprague-Dawley rat at 10 mg/kg, po measured for 1 to 1440 mins by LC-MS/MS analysis; assay type: ADME, organism-based; settings: in vivo, time 1-1440 min
[4] = Cmax in Sprague-Dawley rat at 10 mg/kg, po measured for 1 to 1440 mins by LC-MS/MS analysis; assay type: ADME, organism-based; settings: Sprague-Dawley, in vivo, time 1-1440 min, read-out: Cmax
Cholinesterase [5] = target: T2, Cholinesterase (Homo sapiens, UniProt P06276); assay: Inhibition of human BChE using BTC iodide as substrate preincubated for 5 mins followed by substrate addition measured after 2 mins by Ellman's method
T2 sequence (P06276 whole entry): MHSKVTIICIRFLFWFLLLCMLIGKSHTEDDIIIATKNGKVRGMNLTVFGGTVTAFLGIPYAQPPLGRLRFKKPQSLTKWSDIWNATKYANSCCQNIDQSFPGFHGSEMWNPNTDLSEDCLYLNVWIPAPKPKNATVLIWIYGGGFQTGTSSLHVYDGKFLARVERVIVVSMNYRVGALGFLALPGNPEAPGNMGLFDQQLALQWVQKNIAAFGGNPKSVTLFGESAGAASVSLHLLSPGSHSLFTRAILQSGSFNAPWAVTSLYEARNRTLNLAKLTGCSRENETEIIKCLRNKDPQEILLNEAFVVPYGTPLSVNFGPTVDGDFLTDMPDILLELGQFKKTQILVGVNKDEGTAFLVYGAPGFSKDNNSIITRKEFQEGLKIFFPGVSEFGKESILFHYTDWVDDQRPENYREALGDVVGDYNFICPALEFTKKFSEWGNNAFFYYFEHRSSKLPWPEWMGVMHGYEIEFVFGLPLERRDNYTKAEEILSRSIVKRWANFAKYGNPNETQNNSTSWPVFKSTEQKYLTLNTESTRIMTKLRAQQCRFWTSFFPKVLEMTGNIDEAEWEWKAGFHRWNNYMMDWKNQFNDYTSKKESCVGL

[6] = AUC (0 to t) in Sprague-Dawley rat at 10 mg/kg, po measured for 1 to 1440 mins by LC-MS/MS analysis; assay type: ADME, organism-based; settings: in vivo, time 1-1440 min
[7] = target: Amyloid-beta precursor protein (Mus musculus) (UniProt P12023); assay: In vivo inhibition of Amyloid beta (1 to 42) self-aggregation in brain of Amyloid beta (1 to 42)-treated ICR mouse at 10 mg/kg, po administered daily for 12 days; assay type: functional, organism-based; settings: time 12.0 day
Amyloid-beta precursor protein (Mus musculus), sequence (P12023 whole entry): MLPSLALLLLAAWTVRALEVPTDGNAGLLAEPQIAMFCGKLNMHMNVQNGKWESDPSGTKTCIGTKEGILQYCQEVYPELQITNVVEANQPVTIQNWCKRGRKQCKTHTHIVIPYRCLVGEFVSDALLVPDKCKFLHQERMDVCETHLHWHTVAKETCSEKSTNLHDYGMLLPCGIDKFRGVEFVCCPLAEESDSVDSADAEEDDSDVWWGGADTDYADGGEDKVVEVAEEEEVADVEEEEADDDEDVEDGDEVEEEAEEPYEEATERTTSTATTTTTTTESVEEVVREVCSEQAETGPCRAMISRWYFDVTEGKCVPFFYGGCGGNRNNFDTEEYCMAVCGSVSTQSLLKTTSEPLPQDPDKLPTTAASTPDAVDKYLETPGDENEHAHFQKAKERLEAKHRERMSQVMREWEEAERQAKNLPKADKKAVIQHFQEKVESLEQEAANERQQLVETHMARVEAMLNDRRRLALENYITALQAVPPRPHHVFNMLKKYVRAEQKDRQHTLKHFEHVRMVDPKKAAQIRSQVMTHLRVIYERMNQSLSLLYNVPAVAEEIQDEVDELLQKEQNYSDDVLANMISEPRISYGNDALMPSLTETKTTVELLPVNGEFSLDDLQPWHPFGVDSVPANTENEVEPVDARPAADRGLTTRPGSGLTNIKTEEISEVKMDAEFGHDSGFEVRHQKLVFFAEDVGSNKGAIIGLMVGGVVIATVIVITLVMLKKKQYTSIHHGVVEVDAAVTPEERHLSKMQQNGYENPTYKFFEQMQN

Cholinesterase [8] = target: T2, Cholinesterase; assay: Non-competitive inhibition of human BChE
[9] = Metabolic stability in human liver microsomes assessed as compound metabolism at 2 uM measured for 60 mins by LC-MS/MS analysis; assay type: ADME, Microsome; settings: read-out: Drug metabolism

Nc1nonc1-c1nc2ccccc2n1CC(=O)Nc1ccc(CCN2CCOCC2)cc1
inhibition (INH) (Cytochrome P450 1A2): Not Active
Activity [1]: Non-Toxic
Activity [2]: Non-Toxic
half-life [3]: 6.77 h
Cmax [4]: 1060 ng/mL
pIC50 (Cholinesterase [5]): 7.32
AUC(0-t) [6]: 1440 ng·h/mL
inhibition [7]: inactive
inhibition (Cholinesterase [8]): Active
metabolised at 1 h, 2 µM [9]: < 15%
